Laboratory results: PubChem BioAssay (NCI)
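1) Cells in 96-well plates. 2) Compound, 48 h, 5 concentrations. 3) Linear interpolation between surrounding doses. 4) Unreached endpoint = highest concentration. The concentration for 50% growth inhibition is given as GI50. At the TGI there is no net growth.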

Columns and labels:
Experiment in all cases: inhibition of tumour cell growth, NCI panel, 48 h
HCT-15 colon = tested on: HCT-15 colon
A549 NSCLC = tested on: A549 NSCLC
NCI-H226 lung = tested on: NCI-H226 lung
SNB-75 CNS = tested on: SNB-75 CNS
UACC-257 melanoma = tested on: UACC-257 melanoma
ACHN renal = tested on: ACHN renal
MCF7 breast = tested on: MCF7 breast
NCI-H522 lung = tested on: NCI-H522 lung
T-47D breast = tested on: T-47D breast
M14 melanoma = tested on: M14 melanoma

Structure (SMILES) | GI50 (HCT-15 colon) [µM] | TGI (HCT-15 colon) [µM] | GI50 (A549 NSCLC) [µM] | TGI (A549 NSCLC) [µM] | GI50 (NCI-H226 lung) [µM] | TGI (NCI-H226 lung) [µM] | GI50 (SNB-75 CNS) [µM] | TGI (SNB-75 CNS) [µM] | GI50 (UACC-257 melanoma) [µM] | TGI (UACC-257 melanoma) [µM] | GI50 (ACHN renal) [µM] | TGI (ACHN renal) [µM] | GI50 (MCF7 breast) [µM] | TGI (MCF7 breast) [µM] | GI50 (NCI-H522 lung) [µM] | TGI (NCI-H522 lung) [µM] | GI50 (T-47D breast) [µM] | TGI (T-47D breast) [µM] | GI50 (M14 melanoma) [µM] | TGI (M14 melanoma) [µM]
CC([C@H]1CCC2C3CCC4C[C@@H](NC=O)CC[C@]4(C)C3CC[C@@]21C)N(C)C (stereo partly drawn) | 1.56 | 4.66 | 3.32 | 11.5 | 5.47 | 21 | 4.68 | 18.2 | 2.57 | 6.24 | 5.17 | 18 | 2.06 | 7.26 | 4.53 | 17.6 | 1.76 | 5.94 | 1.87 | 3.55
FC(F)(F)c1cccc(COCCN2CCN(Cc3cccc(C(F)(F)F)c3)CC2)c1 | – | 31.5 | – | 30.9 | – | 35.8 | – | 26.3 | – | 35.5 | – | 29.1 | – | 31.7 | – | 26.5 | – | 39.1 | – | 94.6
CC(=O)C1CC2(c3ccc(C)cc3)C(c3ccc(C)cc3)=C(c3ccc(C)cc3)C1(c1ccc(C)cc1)S2=O (stereo not drawn) | > 100 | > 100 | > 100 | > 100 | > 100 | > 100 | > 100 | > 100 | > 100 | > 100 | > 100 | > 100 | > 100 | > 100 | > 100 | > 100 | 68 | > 100 | > 100 | > 100
COc1ccc2nc(-c3ccccc3)cc(Nc3ccc(C(C)=O)cc3)c2c1 | 2.25 | 6.11 | 11.9 | 60.3 | 0.94 | 3.46 | 17.9 | 42.5 | 12 | 32.6 | 2.54 | 9.79 | 2.47 | 13.9 | 17.7 | > 100 | 15.7 | > 100 | 2.61 | 7.25
Cc1cccc(C)c1NC(=O)/C(Cl)=C(/Cl)C(=O)O | – | 34.8 | – | 45.3 | – | 27.4 | – | 43.4 | – | 29.8 | – | 29.4 | – | 46.3 | – | 8.92 | – | 66.2 | – | 12.6
c1ccc2[nH]c(SSc3nc4ncncc4[nH]3)nc2c1 | 3.25 | > 100 | 19.4 | > 100 | 9.52 | > 100 | 13.1 | > 100 | 4.97 | > 75.2 | 4.14 | > 100 | 0.295 | – | 0.383 | – | 0.489 | 98.9 | 0.347 | 82.1
C=C1C(=O)O[C@@H]2C1C[C@@H](O)/C(C)=C/C/C=C(\C)CCC[C@H](C)[C@H]2OC(C)=O (stereo partly drawn) | 22.2 | 51.9 | 35.8 | > 100 | 23.2 | 44.3 | 38.6 | > 100 | 36.4 | > 100 | 21.3 | 42.6 | 20 | 46.2 | 22.7 | 79.9 | 48.4 | > 100 | 19.4 | 44.1
COc1ccc2c(c1)nc(N)c1c3cc(OC)c(OC)cc3cn21 | < 0.01 | 13.3 | 0.0925 | 16.6 | – | 16.8 | – | 22.6 | 11.4 | 27.2 | < 0.01 | 16.3 | 0.148 | 13.7 | < 0.01 | – | 0.721 | 25.5 | – | –
C=C(Cl)COC(=O)Nc1cccc(Cl)c1 | – | > 100 | – | > 100 | – | > 100 | – | 83.7 | – | > 100 | – | > 100 | – | > 100 | – | 83.6 | – | > 100 | – | > 100
CCCCCCCCCNCCCCCCCCC | 1.79 | 3.47 | 2.04 | 4.08 | 1.83 | 3.61 | 1.57 | 3.38 | 1.93 | 3.61 | 1.76 | 3.14 | 1.7 | 3.3 | 1.54 | 3.08 | 1.91 | 3.59 | 1.76 | 3.19
O=C(NC1CC1)c1ccc(-c2nc3ccc4[nH]ncc4c3c3c2CCCC3)cc1 | 1.58 | 13.9 | 1.63 | > 50 | 3.41 | 47.6 | 1.54 | 4.87 | 9.1 | 34.7 | 1.03 | > 50 | 1.44 | 9.57 | 1.21 | 9.54 | 1.62 | 15.4 | 2.33 | 10.4
CN(C)CCCN=C(N)N | – | > 100 | – | > 100 | – | > 100 | – | > 100 | – | > 100 | – | > 100 | – | > 100 | – | > 100 | – | > 100 | – | > 100
CC1(C)NCCC[C@]2(C)[C@H]3C=CC4=C5C[C@](C)(CO)CC[C@]5(C)CC[C@@]4(C)[C@]3(C)CC[C@@H]12 | 4.21 | 16.4 | 1.89 | 3.71 | 4 | 16.9 | 3.43 | 14.8 | 5.24 | 17 | 2.93 | 9.56 | 3.14 | 14.5 | 2.38 | 7.31 | 5.38 | 20.9 | 3.91 | 14.8
COc1cc(Cl)cc(-c2nn(C(=O)NCCN3CCN(C)CC3)cc2-c2ccncc2)c1 | 17.2 | 69.9 | 9.55 | > 100 | 4.29 | 57.3 | 1.75 | 9.65 | 20.5 | > 100 | 4.16 | > 100 | 29.4 | > 100 | 20.3 | 53.6 | 20.8 | > 100 | 9.46 | 29.3
